From patent publication US4088653A, “Tetrahydropyridyl derivatives” (Canadian Patents and Developments Limited, priority 1976, dated 1978)
Like-named read-outs stand apart in the source and are kept apart here.

Legend:
[1] = test system: phenylquinone-writhing; experiment: Analgesic activity, phenylquinone-writhing test; type: in vivo, Swiss albino mice; details: for Analgesic activity (in words): mouse, in vivo; for ED50: Mus musculus, sc, read-out: Ed50 (analgesic activity)
Protocol: (§1) Initially the activity of the compound tested on an animal was determined at a single dose. If the substance was active at this dose, it was subjected to limited repeat testing. If the presence of activity was confirmed by repetition of the testing, a dose response relation was constructed and the effective dose (ED50) determined. If toxicity was encountered with the initial dose, the dose was reduced until one was reached which was tolerated by the animals tested.
The active ingredients were suspended in a solution of physiological saline and "Tween 80" (TM) surfactant. A dose amounting to 10 milliliters of physiological saline solution and active ingredient per kilogram of bodyweight was administered to the mice according to the dosage as set out in Table 2.

[2] = test system: carageenan inflamed paw; experiment: Anti-inflammatory activity, carageenan-inflamed hind paw volume; type: in vivo, Sprague-Dawley rats; details: for Response % animals protected, 3 hours after drug / Response % animals protected, 5 hours after drug: subcutaneous, Sprague-Dawley rats; for Anti-inflammatory activity (in words): rat, in vivo
Protocol: as §1
Substances were administered subcutaneously to Sprague-Dawley rats, weighing 100-120 g. A suspension of 0.03% carageenan was injected under the plantar skin of a hind paw. The increase in volume of the inflamed paw was measured 3 and 5 hours after drug administration.

[3] = test system: blood-glucose; experiment: Determination of blood-glucose (hyperglycemic activity); type: in vivo, Wistar rats; details: for % change in blood-glucose concentrations: oral, fasted Wistar rats, 4 hours post-treatment; for Hyperglycemic activity (in words): rat, in vivo
Protocol: as §1
Substances were suspended in distilled water and were administered orally to over-night fasted Wistar rats. […] (Escalab ® G:15) (Barthelmai and Czok, Klinische Wochenschrift 40: 585 (1962)).

[4] = 128 mg/kg, subcutaneous, Swiss albino mice
[5] = 32 mg/kg, subcutaneous, Swiss albino mice
[6] = 64 mg/kg, subcutaneous, Swiss albino mice
[7] = 256 mg/kg, subcutaneous, Swiss albino mice
[8] = subcutaneous, Swiss albino mice, method of Litchfield and Wilcoxon

| Structure (SMILES) | Response % inhibition (phenylquinone-writhing) [1, 4] [%] | Analgesic activity (in words) [1] | Response % animals protected, 3 hours after drug ([2]; 64 mg/kg) [%] | Response % animals protected, 5 hours after drug ([2]; 64 mg/kg) [%] | Anti-inflammatory activity (in words) [2] | Hyperglycemic activity (in words) [3] | Response % inhibition (phenylquinone-writhing) [1, 5] [%] | Response % inhibition (phenylquinone-writhing) [1, 6] [%] | Response % inhibition (phenylquinone-writhing) [1, 7] [%] | ED50 [1, 8] [mg/kg] | also measured |
| --- | --- | --- | --- | --- | --- | --- | --- | --- | --- | --- | --- |
| O=C(NN1CC=CCC1)c1ccccn1 [Compound A-19, N-(2-pyridylcarbonylimino)-1,2,5,6-tetrahydropyridine] | 57.3 | active analgesics | 25 | 75 | striking anti-inflammatory action | demonstrated hyperglycemic activity | – | – | – | – | Analgesic activity (in words) ([1]; listed as A19): analgesic; Anti-inflammatory activity (in words) ([2]; listed as A19): anti-inflammatory; % change in blood-glucose concentrations ([3]; 100 mg/kg): +50%; % change in blood-glucose concentrations ([3]; 200 mg/kg): +50%; Hyperglycemic activity (in words) ([3]; listed as A19): hyper- |
| CC(=O)Oc1ccccc1C(=O)O [Aspirin (TM), reference compound] | – | – | – | – | – | – | – | – | – | – | ED50 [1]: 52 mg/kg |
| O=C(NN1CCC=C(CCCO)C1)c1ccncc1 [Compound A-22, N-(4-pyridylcarbonylimino)-3-(3^1-hydroxypropyl)-1,2,5,6-tetrahydropyridine] | 43 | analgesic (slight) | – | – | – | – | – | – | – | – | – |
| COc1ccc2c(c1)c(CC(=O)O)c(C)n2C(=O)c1ccc(Cl)cc1 [Indomethazine (TM), reference compound] | – | – | – | – | – | – | – | – | – | – | Response % animals protected, 3 hours after drug ([2]; 12 mg/kg): 50%; Response % animals protected, 5 hours after drug ([2]; 12 mg/kg): 50% |
| O=C(NN1CCC=C(CCCO)C1)c1ccccc1 [Compound A-21, N-(benzoylimino)-3-(3^1-hydroxypropyl)-1,2,5,6-tetrahydropyridine] | 20 | analgesic (slight) | – | – | – | – | – | – | – | – | – |
| O=C(NN1CC=CCC1)c1ccccc1 [Compound A-20, N-(benzoylimino)-1,2,5,6-tetrahydropyridine] | 88.2 | active analgesics | 25 | 50 | – | – | 57.4 | 59.0 | 98.0 | 36 | Response % inhibition (phenylquinone-writhing) ([1]; 16 mg/kg, subcutaneous, Swiss albino mice): 26.2%; Analgesic activity (in words) ([1]; listed as A20): analgesic |
| O=C(NN1CC=CCC1)c1cccnc1 [Compound A-14, N-(3-pyridylcarbonylimino)-1,2,5,6-tetrahydropyridine] | 81.2 | active analgesics | 50 | 0 | – | demonstrated hyperglycemic activity | 38.9 | 59.2 | 89.6 | 47 | Analgesic activity (in words) ([1]; listed as A14): analgesic; Hyperglycemic activity (in words) ([3]; listed as A14): hyper- |
| O=C(NN1CC=C(CCCO)CC1)c1ccncc1 [Compound A-23, N-(4-pyridylcarbonylimino)-4-(3^1-hydroxypropyl)-1,2,5,6-tetrahydropyridine] | 11 | – | 25 | 75 | striking anti-inflammatory action | – | – | – | – | – | Anti-inflammatory activity (in words) ([2]; listed as A23): anti-inflammatory |
| O=C(NN1CC=CCC1)c1ccncc1 [Compound A-13, N-(4-pyridylcarbonylimino)-1,2,5,6-tetrahydropyridine] | 80.8 | active analgesics | 25 | 75 | striking anti-inflammatory action | demonstrated hyperglycemic activity | 38.6 | 58.0 | 96.0 | 53 | Analgesic activity (in words) ([1]; listed as A13): analgesic; Anti-inflammatory activity (in words) ([2]; listed as A13): anti-inflammatory; Hyperglycemic activity (in words) ([3]; listed as A13): hyper- |
